Test results taken from US8980586B2, “Compound and method for producing same” (The Ritsumeikan Trust, priority 2011, dated 2015).
Converted amounts (≈) assume the structure as drawn.

Columns and labels:
[1] = Solubility (physicochemical properties); conditions: for Solubility in methanol, dimethyl sulfoxide (DMSO), and chloroform: organic solvents
Saprolegnia parasitica = assay: Antimicrobial activity against eukaryotic microorganisms, 96-well microplate (MIC); type: cell-based; conditions: GY medium, 18° C., 24 hours
Description: (§1) The activity against eukaryotic microorganisms was measured with a 96-well microplate in the following manner. Compound (I-1), (I0-B), (I0-C), (I0-D), or (I-2) was suspended in 8% methanol water to prepare a sample suspension having a concentration of 4000, 2000, 1000, 500, 250, 125, 62.5, 32, 16, 8, or 4 μg/mL. Pyceze was diluted with water to prepare Pyceze aqueous solutions having the above concentrations. 50 μl of each of the sample solutions having the above concentrations, 50 μl of sterilized 4-fold concentrated liquid medium, and 100 μl of spore suspension or bacterial suspension of the test organisms prepared beforehand were poured in each well of the 96-well microplate. The experiments were performed in duplicate. […] The test organisms and the culture conditions were as follows.
Saprolegnia parasitica: GY medium (glucose: 1%, yeast extract: 0.25%, pH: 6.5), 18° C., 24 hours;

Bacillus subtilis = assay: Activity against prokaryotic microorganisms, paper disc method on agar plate; type: cell-based; conditions: LB agar, 37° C. overnight, concentration of sample solution
Description: (§2) The activity against prokaryotic microorganisms was measured by the paper disc method on an agar plate medium into which test organisms were kneaded. Staphylococcus aureus, Bacillus subtilis, or Escherichia coli was inoculated in 3 mL of sterilized LB medium (glucose: 0.5%, polypeptone: 1%, yeast extract: 0.5%, NaCl: 0.5%, pH: 7.2) in a test tube, and cultured at 37° C. overnight. The pre-culture solution (1%) was inoculated in a sterilized LB agar medium (agar: 1.5%) to prepare an agar assay plate. Compound (I-1) or (I-2) was dissolved in methanol to prepare a sample solution having a concentration of 1000, 500, 250, 125, 62.5, 32, 16, 8, 4, 2, or 1 μg/mL. The sample solution was infiltrated into a paper disc (ADVANTEC, diameter: 8 mm, thick), followed by air-drying. The paper disc was placed on the agar assay plate, and cultured at 37° C. overnight.

Escherichia coli = assay: as above; type: cell-based; conditions: LB agar, 37° C. overnight
Description: as §2

Staphylococcus aureus = assay: as above; type: cell-based; conditions: LB agar, 37° C. overnight, concentration of sample solution
Description: as §2

Phoma sp. = assay: Antimicrobial activity against eukaryotic microorganisms, 96-well microplate (MIC); type: cell-based; conditions: YPD medium, 30° C., 30 hours
Description: as §1
Phoma sp.: YPD medium (yeast extract: 1%, peptone: 2%, glucose: 2%, pH: 6.5), 30° C., 30 hours; and […]

[2] = tested on: water flea (Daphnia pulex); assay: Water flea swimming ability inhibitory activity test; type: in vivo; conditions: 24 hours incubation, 20° C.; probit method
Description: The number of water fleas was adjusted so that each 10 mL of aerated water contained 5 fleas. The water fleas were all 24 hours old after birth or younger. The aerated water was prepared by aerating tap water, which had been filtered by a water cleaner, for at least 24 hours. A sample solution obtained by dissolving Compound (I-1) or (I-2) in methanol, or a Pyceze aqueous solution obtained by diluting Pyceze with water, was added to the water flea breeding water under stirring so that the final concentration of the sample or Pyceze became 100, 10, 1, 0.1, or 0.01 μg/mL. After incubation for 24 hours (20° C., 17 μmol photons/m^2/s, Light:Dark=16:8), the number of water fleas swimming in the breeding water was counted. The water fleas were divided into multiple groups, each consisting of 5 fleas. Using 2 groups each, an experiment was performed with the test liquids having the aforementioned different final concentrations. From the obtained results, IC50 values were calculated according to the probit method using SPSS statistical software.

edible oysters = conditions: cited from earlier work
water fleas = conditions: cited from earlier work
green algae = conditions: cited from earlier work

Row | SMILES | Solubility in methanol, dimethyl sulfoxide (DMSO), and chloroform [1] | Solubility in water [1] | minimum inhibitory concentration (MIC) with respect to Saprolegnia parasitica (Saprolegnia parasitica) [µg/mL] | minimum inhibitory concentration with respect to Bacillus subtilis (Bacillus subtilis) [µg/mL] | inhibition ring formation for Escherichia coli (Escherichia coli) | minimum inhibitory concentration with respect to Staphylococcus aureus (Staphylococcus aureus) [µg/mL] | MIC with respect to Phoma sp. (Phoma sp.) [µg/mL] | 50% swimming ability inhibitory concentration with respect to water flea (Daphnia pulex) [2] [µg/mL] | EC50 (toxicity) in edible oysters (edible oysters) [µg/mL] | EC50 (toxicity) in water fleas (water fleas) [µg/mL] | EC50 (toxicity) in green algae (green algae) [µg/mL]
1 | CC1OC(OC2C(O)CC(c3ccc4c(c3O)C(=O)C3=C(C4=O)C4(O)C(=O)CC(C)(OC5C=CC(=O)C(C)O5)CC4(O)C=C3)OC2C)C=CC1=O (centres unmarked) [Compound I0-A] | Soluble | Slightly soluble | – | – | – | – | – | – | – | – | –
2 | CC1OC(OC2CCC(OC3C(O)CC(c4ccc5c(c4O)C(=O)C4=C(C5=O)C5(O)C(=O)CC(C)(OC6CCC(=O)C(C)O6)CC5(O)C=C4)OC3C)OC2C)C=CC1=O (centres unmarked) [Compound I0-D] | Soluble | Slightly soluble | 1 | 62.5 | an inhibition ring was not observed | 62.5 | 500 | – | – | – | –
3 | CC1OC(OC2CCC(OC3C(O)CC(c4ccc5c(c4O)C(=O)C4=C(C5=O)C5(O)C(=O)CC(C)(OC6C=CC(=O)C(C)O6)CC5(O)C=C4)OC3C)OC2C)C=CC1=O (centres unmarked) [Compound I0-E] | Soluble | Slightly soluble | – | – | – | – | – | – | – | – | –
4 | CC1OC(OC2C(O)CC(c3ccc4c(c3O)C(=O)C3=C(C4=O)C4(O)C(=O)CC(C)(OC5C=CC(=O)C(C)O5)CC4(O)C=C3)OC2C)C=CC1=O (centres unmarked) [Compound I-1] | – | – | 0.0039 | 62.5 | an inhibition ring was not observed | 31.2 | 500 | 2.58 | – | – | –
5 | CC1OC(OC2CCC(OC3C(O)CC(c4ccc5c(c4O)C(=O)C4=C(C5=O)C5(O)C(=O)CC(C)(OC6C=CC(=O)C(C)O6)CC5(O)C=C4)OC3C)OC2C)C=CC1=O (centres unmarked) [Compound I-2] | – | – | 0.0078 | 8.0 | an inhibition ring was not observed | 16.0 | 500 | 4.48 | – | – | –
6 | O=[N+]([O-])C(Br)(CO)CO [bronopol] | – | – | – | – | – | – | – | – | 0.77 (≈ 3.85 µM) | 1.4 (≈ 7 µM) | 0.0537 (≈ 0.269 µM)
